US20220017471A1, “FUNCTIONALITY INDEPENDENT LABELING OF ORGANIC COMPOUNDS” (Shanghai Tech University, priority 2018, published 2022)
Where a name gives a salt, the structure may show the parent alone.

What was measured:
[1] = target: T1, heat shock 70 kDa protein (HSP70) (Homo sapiens, UniProt P0DMV8); test: nDEL affinity selection against HSP70 (enrichment fold by deep sequencing); format: binding; settings: ratio of normalized sequencing counts in presence and absence of target protein; DNA-encoded compound
T1 construct: purchased Sino Biological 11660-H07H
Method: (§1) The panning procedure for these two soluble protein were the same. 5 μg of target protein was mixed with Ni-charged MagBeads (GenScript, Cat. #L00295), 5 nM DEL library and 10 μg/mL Salmon sperm DNA. The final volume to adjusted to 100 μL. The mixture was rotated at room temperature for 1.5 h. After washing 5 times by phosphate-buffered saline supplemented 0.05% Tween-20 (PBST), the target protein binding chemical-DNA conjugations were eluted by heating at 95° C. for 10 min in 50 μL elution buffer (20 mM Tris, pH 7.4, 100 mM NaCl). The eluted DEL compounds were amplified by PCR using Takara PrimerSTAR Max DNA Polymerase (Takara, Cat. #R045A). Then the excess primers was removed by Hieff NGS™ smarter DNA clean beads (Yeasen, Cat. #12600E503) and evaluated on 4% DNA agarose gel. The amplified products was subjected for high-throughput sequencing using Illumina HiSeq X10 Analyzer.
The combinatorial chemical library was constructed by three building block sub libraries, containing 6, 46 and 46 chemical building blocks respectively for the first, second and third building block libraries, respectively. Each building block was encoded by a 10-base pair (bp) DNA sequence. The natural products were encoded by a 30-bp DNA sequence, same length as the combinatorial chemical library DNA codes. […] After sequencing, the Illumina adaptors around the DNA coding sequences were trimmed by CLC genomics workbench version 12 (Qiagen). The left DNA coding sequences were 30 bp in length corresponding to the three DNA sequences of building blocks in 3 rounds of “split-pool” iterations. For each sample, the DNA coding sequences were mapped to the reference DNA encoding compound library. No mismatch was allowed in the mapping. The coding sequences were counted for all the compounds across different samples. The total read-counts of all the compounds in a given sample were calculated. The read-counts for each individual compound were divided by the total counts, multiplied with a constant of 100000.
(§2) NormalizedCountCompoundM,SampleA=CountCompoundM,SampleA/(TotalCountSampleA)*100000
The fold changes of each compound in the after-selection library comparing to the reference library were calculated.
(§3) FoldChangeCompoundM=NormalizedCountCompoundM,SampleA/NormalizedCountCompoundM,Ref
(§4) The hit criteria of nDEL screening take into account of both the normalized enrichment fold values (y-axis) and deep sequencing read counts (x-axis). Compounds with read counts less than 10 are considered unreliable, thus they are eliminated immediately from DEL before on-target screening. For each DEL library, a baseline enrichment fold is recorded in the absence of target protein, and a normalized enrichment fold value can be calculated for each DEL compound in the library. The cutoff for hits identification is based on a simplified statistical analysis of a highly diverse population of data, which is the sum of average value of enrichment-folds of the whole library (μ) plus 3 times of the standard deviation (σ).
Two target proteins with different cellular locations and biophysical properties were used in nDEL screens. […] The known functional binders for these targets were included in nDEL as internal positive controls, e.g., oridonin for HSP70 and derivatives of olaparib (F001, F002, F003 and F006) for PARP-1. To account for the non-uniform distribution of DNA barcodes in nDEL, a blank screen of nDEL in the absence of target proteins but presence of immobilization matrix beads was carried out first and followed by deep-sequencing to establish the baseline distribution of barcodes in the library. All screening data were analyzed using the method described by Decurtins et al., Nat Protoc. […] The corresponding DNA sequence of each nDEL compound were tallied based on its sequencing counts. The enrichment fold is calculated as the ratio of normalized sequencing counts in the presence and absence of target protein.

[2] = target: T2, poly [ADP-ribose] polymerase 1 (PARP1) (Homo sapiens, UniProt P09874); test: nDEL affinity selection against PARP-1 (enrichment fold by deep sequencing); format: binding; settings: for Fold Change, enrichment folds for PARP-1 binder selection: ratio of normalized sequencing counts in presence and absence of target protein, DNA-encoded compound
T2 construct: purchased Sino Biological 11040-H08B
Method: as §1, with “The his-tag fused recombinant human PARP-1 (Sino Biological, Cat. #11040-H08B) and human-HSP70 (Sino Biological, Cat. #11660-H07H) were obtained from commercial source. The panning” for “The panning”
The combinatorial chemical library was constructed by three building block sub libraries, containing 6, 46 and 46 chemical building blocks respectively for the first, second and third building block libraries, respectively. Each building block was encoded by a 10-base pair (bp) DNA sequence. The natural products were encoded by a 30-bp DNA sequence, same length as the combinatorial chemical library DNA codes. All the possible combinations (combinatorial chemical compounds) between these three sub libraries were generated by an inhouse java program, which generated a reference DNA encoding library contains 12696 DNA encoding sequences. After sequencing, the Illumina adaptors around the DNA coding sequences were trimmed by CLC genomics workbench version 12 (Qiagen). The left DNA coding sequences were 30 bp in length corresponding to the three DNA sequences of building blocks in 3 rounds of “split-pool” iterations. For each sample, the DNA coding sequences were mapped to the reference DNA encoding compound library. No mismatch was allowed in the mapping. The coding sequences were counted for all the compounds across different samples. The total read-counts of all the compounds in a given sample were calculated. The read-counts for each individual compound were divided by the total counts, multiplied with a constant of 100000.
as §2
The fold changes of each compound in the after-selection library comparing to the reference library were calculated. For example, if SampleA and Reference library were compared, for the fold change of CompoundM was calculated as:
as §3, §4
Two target proteins with different cellular locations and biophysical properties were used in nDEL screens. […] The known functional binders for these targets were included in nDEL as internal positive controls, e.g., oridonin for HSP70 and derivatives of olaparib (F001, F002, F003 and F006) for PARP-1.

| Molecule | Enrichment Fold, HSP70 binder selection [1] | Fold Change, enrichment folds for PARP-1 binder selection [2] | Selected among enriched chemicals in PARP-1 nDEL screening ([2]; hit selection, FIG. 20(b), FIG. 21) |
| --- | --- | --- | --- |
| O=c1ccc2ccc(O)cc2o1 [7-Hydroxycoumarin] | 4.2 |  |  |
| Oc1cc(O)c2c(c1)O[C@H](c1ccc(O)c(O)c1)[C@@H](O)C2 [(+) Catechin] | 2.7 |  |  |
| O=C(O[C@@H]1Cc2c(O)cc(O)cc2O[C@@H]1c1ccc(O)c(O)c1)c1cc(O)c(O)c(O)c1 [(−)-Epicatechin gallate, (−)- Epicatechingallate] | 5.0 | 2.81 |  |
| O=C1c2ccccc2C(=O)c2c1ccc(O)c2O [Alizarin] | 4.3 | 2.02 |  |
| C[C@H]1[C@H](OC(=O)CCC(=O)O)O[C@@H]2O[C@@]3(C)CC[C@H]4[C@H](C)CC[C@@H]1[C@@]24OO3 [Artesunate] | 2.4 |  |  |
| O=c1cc(-c2ccccc2)oc2cc(O)c(O)c(O)c12 [Baicalein] | 3.6 |  |  |
| COc1c(O)cc2c(c1O)[C@@H]1O[C@H](CO)[C@@H](O)[C@H](O)[C@H]1OC2=O [Bengenin] | 3.6 |  |  |
| c1ccc(CNc2ncnc3nc[nH]c23)cc1 [Benzyladenine] | 3.6 |  |  |
| COc1ccc(-c2coc3cc(O)cc(O)c3c2=O)cc1 [Biochanin A] | 3.7 |  |  |
| Cc1c(F)cccc1NC(=O)Nc1ccc(Cl)c(S(=O)(=O)[C@H]2CCCNC2)c1O [Danirixin] | 2.9 |  |  |
| O=c1ccc2ccc(O)c(O)c2o1 [Daphnetin] | 3.9 | 2.17 |  |
| Oc1cc(O)c2c(c1)O[C@H](c1cc(O)c(O)c(O)c1)[C@H](O)C2 [Epigallocatechin, epigallocatechin] | 4.3 | 2.53 |  |
| O=c1ccc2cc(O)c(O)cc2o1 [Esculetin] | 4.1 |  |  |
| COc1cc2ccc(=O)oc2c(O)c1O [Fraxetin] | 3.3 | 2.01 |  |
| COc1cc2c(cc1O)CC[n+]1cc3c(OC)c(OC)ccc3cc1-2 [Jatrorrhizine hydrochloride] | 4.5 | 2.23 |  |
| COc1cc2c(cc1O)CC[n+]1cc3c(OC)c(OC)ccc3cc1-2 [Jatrorrhizine] | 3.7 | 2.04 |  |

| Molecule | Enrichment Fold, HSP70 binder selection [1] | Fold Change, enrichment folds for PARP-1 binder selection [2] | Selected among enriched chemicals in PARP-1 nDEL screening ([2]; hit selection, FIG. 20(b), FIG. 21) |
| --- | --- | --- | --- |
| c1coc(CNc2ncnc3[nH]cnc23)c1 [Kinetin] | 2.8 |  |  |
| O=C1C[C@@H](c2ccc(O)cc2)Oc2cc(O)ccc21 [Liquiritigenin] | 2.7 |  |  |
| O=C1C[C@@H](c2ccc(O[C@@H]3O[C@H](CO)[C@@H](O)[C@H](O)[C@H]3O)cc2)Oc2cc(O)ccc21 [Liquiritin] | 3.9 | 2.66 |  |
| COC(=O)c1ccc(O)c(O)c1 [Methyl protocatechuate] | 3.6 |  |  |
| C[C@@H]1O[C@@H](O[C@H]2[C@H](Oc3cc(O)c4c(c3)O[C@H](c3ccc(O)cc3)CC4=O)O[C@H](CO)[C@@H](O)[C@@H]2O)[C@H](O)[C@H](O)[C@H]1O [Naringin] | 4.5 | 2.17 | selected |
| COC(=O)Nc1nc2ccc(C(=O)c3cccs3)cc2[nH]1 [Nocodazole, reference compound] | 3.9 | 2.06 |  |
| CC(=O)c1c(O)cc(O)cc1O [Phloracetophenone] | 3.5 |  |  |
| O=C(CCc1ccc(O)cc1)c1c(O)cc(O)cc1O[C@@H]1O[C@H](CO)[C@@H](O)[C@H](O)[C@H]1O [Phlorizin] | 3.8 |  |  |
| COc1cc(C(=O)O[C@H]2[C@@H]3C=CO[C@@H](O[C@@H]4O[C@H](CO)[C@@H](O)[C@H](O)[C@H]4O)[C@@H]3[C@@]3(CO)O[C@@H]23)ccc1O [Picroside II] | 4.0 |  |  |
| O=C(O)c1ccc(O)c(O)c1 [Protocatechuic acid] | 3.8 |  |  |
| Cc1ncc(CO)c(CO)c1O [Pyridoxine, reference compound] | 3.4 |  |  |
| Cn1c(=O)c2c(ncn2CC(=O)O)n(C)c1=O [Theophylline-7-acetic acid, Theophylline-7-acetic acid, reference compound] | 3.3 |  |  |
| O=c1c(O)c(-c2ccc(O)c(O)c2)oc2cc(O)cc(O)c12 [quercetin, Quercetin] | 2.8 |  |  |
| O=c1c2ccccc2nc2n1CCc1c-2[nH]c2ccccc12 [rutaecarpin] | 3.2 |  |  |
| COC1=C[C@@H]2[C@@H]3Cc4ccc(OC)c(O)c4[C@]2(CCN3C)CC1=O [sinomenine] | 3.2 |  |  |
| (+)-Catechin Hydrate | 3.8 |  |  |
